Laboratory results from US8822446B2, “Pyrrolopyridine inhibitors of kinases” (AbbVie Inc., priority 2010, dated 2014).

These compounds were tested against T1, Cdc7 (BEV coexpressed huCDC7/DBF4) (Homo sapiens, UniProt O00311) (assay: Cdc7 enzyme inhibition assay ([33P]-ATP, biotinylated peptide substrate, FlashPlate)). Conditions: Ki generated from IC50 assuming ATP-competitive inhibition; 1 μM ATP, apparent ATP Km 0.7 μM; 1 hr reaction.
T1 construct: made in house; host or cells: baculovirus expression vector (BEV) co-expression
T1 sequence (O00311 whole entry): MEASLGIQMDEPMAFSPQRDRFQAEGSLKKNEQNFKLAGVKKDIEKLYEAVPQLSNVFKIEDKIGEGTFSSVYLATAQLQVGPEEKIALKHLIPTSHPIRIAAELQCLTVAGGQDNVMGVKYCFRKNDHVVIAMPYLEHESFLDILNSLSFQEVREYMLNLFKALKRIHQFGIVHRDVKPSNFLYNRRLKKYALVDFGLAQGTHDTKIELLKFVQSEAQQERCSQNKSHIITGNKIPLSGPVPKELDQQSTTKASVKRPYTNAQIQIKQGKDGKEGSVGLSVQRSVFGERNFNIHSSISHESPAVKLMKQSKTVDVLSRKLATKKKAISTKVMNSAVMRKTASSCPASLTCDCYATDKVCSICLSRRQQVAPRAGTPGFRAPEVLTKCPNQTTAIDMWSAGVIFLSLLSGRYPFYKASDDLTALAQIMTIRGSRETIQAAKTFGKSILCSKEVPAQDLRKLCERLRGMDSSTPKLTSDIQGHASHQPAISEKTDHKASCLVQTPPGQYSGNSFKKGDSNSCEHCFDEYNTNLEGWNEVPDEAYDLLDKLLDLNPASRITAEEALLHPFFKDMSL
T1 sequence (Q9UBU7 whole entry partner): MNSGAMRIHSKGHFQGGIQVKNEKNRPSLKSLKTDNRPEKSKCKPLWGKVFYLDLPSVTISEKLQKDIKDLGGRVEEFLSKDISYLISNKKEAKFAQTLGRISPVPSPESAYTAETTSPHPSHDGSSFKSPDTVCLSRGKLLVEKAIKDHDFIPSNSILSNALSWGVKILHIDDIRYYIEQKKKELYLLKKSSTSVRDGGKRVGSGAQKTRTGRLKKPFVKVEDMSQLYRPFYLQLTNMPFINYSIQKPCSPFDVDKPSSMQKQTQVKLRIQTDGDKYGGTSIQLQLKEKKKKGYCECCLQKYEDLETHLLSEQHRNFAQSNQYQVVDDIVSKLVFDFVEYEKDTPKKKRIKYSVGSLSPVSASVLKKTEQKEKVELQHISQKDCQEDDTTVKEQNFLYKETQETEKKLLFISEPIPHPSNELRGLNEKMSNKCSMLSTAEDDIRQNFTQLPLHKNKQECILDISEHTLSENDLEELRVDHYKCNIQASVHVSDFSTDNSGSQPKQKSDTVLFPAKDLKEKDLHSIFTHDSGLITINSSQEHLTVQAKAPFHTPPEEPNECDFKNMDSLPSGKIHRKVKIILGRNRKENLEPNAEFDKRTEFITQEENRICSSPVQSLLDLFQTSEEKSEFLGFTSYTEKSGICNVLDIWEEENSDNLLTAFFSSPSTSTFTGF
Format: biochemical
Method: This example describes the assays that may be used to identify compounds having kinase activity.
Cdc7 (BEV coexpressed huCDC7/DBF4) is prepared internally. Cdc7 assays are conducted as follows with final concentrations as listed. In 384-well v-bottom polypropylene plates, 6 μL compound (2% DMSO), is mixed with 6 μL of Cdc7 (2 ug/mL), and Jerini peptide substrate A-A11 (biotin-C6linker-[…]) (2 μM), followed by immediate initiation with 6 μL […] (1 μM, 20 mCi/μmol) using a reaction buffer comprising 25 mM HEPES, pH 7.5, 1 mM DTT, 10 mM MgCl2, 100 μM, Na3VO4, 0.075 mg/ml Triton X-100. Reactions are quenched after 1 hr by the addition of 90 μL stop buffer (50 mM EDTA, 2M NaCl).
Table 1 depicts enzyme inhibition data (Ki) for exemplary compounds.

| Structure (SMILES) | Ki [nM] |
| --- | --- |
| O=c1cc(-c2c[nH]c3ncccc23)nc(NC2CCCCC2)[nH]1 [Example 1, 2-(cyclohexylamino)-6-(1H-pyrrolo[2,3-b]pyridin-3-yl)pyrimidin-4(3H)-one] | < 10 |
| O=c1cc(-c2c[nH]c3ncccc23)nc(N2CCC(CO)CC2)[nH]1 [Example 21, 2-[4-(hydroxymethyl)piperidin-1-yl]-6-(1H-pyrrolo[2,3-b]pyridin-3-yl)pyrimidin-4(3H)-one] | < 10 |
| O=c1cc(-c2c[nH]c3ncccc23)nc(NCCCN2CCOCC2)[nH]1 [Example 22, 2-{[3-(morpholin-4-yl)propyl]amino}-6-(1H-pyrrolo[2,3-b]pyridin-3-yl)pyrimidin-4(3H)-one] | < 10 |
| O=c1cc(-c2c[nH]c3ncccc23)nc(NCc2cccc(O)c2)[nH]1 [Example 23, 2-[(3-hydroxybenzyl)amino]-6-(1H-pyrrolo[2,3-b]pyridin-3-yl)pyrimidin-4(3H)-one] | < 10 |
| O=c1cc(-c2c[nH]c3ncccc23)nc(N2CCOCC2)[nH]1 [Example 24, 2-(morpholin-4-yl)-6-(1H-pyrrolo[2,3-b]pyridin-3-yl)pyrimidin-4(3H)-one] | < 10 |
| O=C(O)C1CCN(c2nc(-c3c[nH]c4ncccc34)cc(=O)[nH]2)CC1 [Example 25, 1-[6-oxo-4-(1H-pyrrolo[2,3-b]pyridin-3-yl)-1,6-dihydropyrimidin-2-yl]piperidine-4-carboxylic acid] | < 10 |
| O=c1cc(-c2c[nH]c3ncccc23)nc(NC2CCCC2)[nH]1 [Example 26, 2-(cyclopentylamino)-6-(1H-pyrrolo[2,3-b]pyridin-3-yl)pyrimidin-4(3H)-one] | < 10 |
| COC1CCN(c2nc(-c3c[nH]c4ncccc34)cc(=O)[nH]2)CC1 [Example 27, 2-(4-methoxypiperidin-1-yl)-6-(1H-pyrrolo[2,3-b]pyridin-3-yl)pyrimidin-4(3H)-one] | < 10 |
| O=c1cc(-c2c[nH]c3ncccc23)nc(NC2CCCCC2O)[nH]1 (centres unmarked) [Example 28, 2-[(2-hydroxycyclohexyl)amino]-6-(1H-pyrrolo[2,3-b]pyridin-3-yl)pyrimidin-4(3H)-one] | < 10 |
| CN1CCC(Nc2nc(-c3c[nH]c4ncccc34)cc(=O)[nH]2)CC1 [Example 29, 2-[(1-methylpiperidin-4-yl)amino]-6-(1H-pyrrolo[2,3-b]pyridin-3-yl)pyrimidin-4(3H)-one] | < 10 |
| O=c1cc(-c2c[nH]c3ncccc23)nc(NCCCn2ccnc2)[nH]1 [Example 30, 2-{[3-(1H-imidazol-1-yl)propyl]amino}-6-(1H-pyrrolo[2,3-b]pyridin-3-yl)pyrimidin-4(3H)-one] | < 10 |
| NCCOCCOCCNc1nc(-c2c[nH]c3ncccc23)cc(=O)[nH]1 [Example 31, 2-({2-[2-(2-aminoethoxy)ethoxy]ethyl}amino)-6-(1H-pyrrolo[2,3-b]pyridin-3-yl)pyrimidin-4(3H)-one] | < 10 |
| O=c1cc(-c2c[nH]c3ncccc23)nc(-c2ccccc2)[nH]1 [Example 32, 2-phenyl-6-(1H-pyrrolo[2,3-b]pyridin-3-yl)pyrimidin-4(3H)-one] | < 10 |
| Cc1ccccc1-c1nc(-c2c[nH]c3ncccc23)cc(=O)[nH]1 [Example 33, 2-(2-methylphenyl)-6-(1H-pyrrolo[2,3-b]pyridin-3-yl)pyrimidin-4(3H)-one] | < 10 |
| O=c1cc(-c2c[nH]c3ncccc23)cc(-c2ccccc2)[nH]1 [Example 34, 6-phenyl-4-(1H-pyrrolo[2,3-b]pyridin-3-yl)pyridin-2(1H)-one] | < 10 |
| O=c1cc(-c2c[nH]c3ncccc23)cc(-c2cccc(OC(F)(F)F)c2)[nH]1 [Example 35, 4-(1H-pyrrolo[2,3-b]pyridin-3-yl)-6-[3-(trifluoromethoxy)phenyl]pyridin-2(1H)-one] | < 10 |
| O=c1cc(-c2c[nH]c3ncccc23)cc(-c2cccc(C(F)(F)F)c2)[nH]1 [Example 36, 4-(1H-pyrrolo[2,3-b]pyridin-3-yl)-6-[3-(trifluoromethyl)phenyl]pyridin-2(1H)-one] | < 10 |
| Cc1cccc(-c2cc(-c3c[nH]c4ncccc34)cc(=O)[nH]2)c1C [Example 37, 6-(2,3-dimethylphenyl)-4-(1H-pyrrolo[2,3-b]pyridin-3-yl)pyridin-2(1H)-one] | < 10 |
| Cc1ccccc1-c1cc(-c2c[nH]c3ncccc23)cc(=O)[nH]1 [Example 38, 6-(2-methylphenyl)-4-(1H-pyrrolo[2,3-b]pyridin-3-yl)pyridin-2(1H)-one] | < 10 |
| O=c1cc(-c2c[nH]c3ncccc23)cc(-c2ccc3c(c2)OCO3)[nH]1 [Example 39, 6-(1,3-benzodioxol-5-yl)-4-(1H-pyrrolo[2,3-b]pyridin-3-yl)pyridin-2(1H)-one] | < 10 |
| O=c1cc(-c2c[nH]c3ncccc23)cc(-c2ccsc2)[nH]1 [Example 40, 4-(1H-pyrrolo[2,3-b]pyridin-3-yl)-6-(3-thienyl)pyridin-2(1H)-one] | < 10 |
| O=c1cc(-c2c[nH]c3ncccc23)cc(-c2ccc3ccccc3c2)[nH]1 [Example 41, 6-(2-naphthyl)-4-(1H-pyrrolo[2,3-b]pyridin-3-yl)pyridin-2(1H)-one] | < 10 |

The next lines start with the values.

| Ki [nM] | Structure (SMILES) |
| --- | --- |
| < 10 | O=c1cc(-c2c[nH]c3ncccc23)nc(NCc2ccccc2)[nH]1 [Example 2, 2-(benzylamino)-6-(1H-pyrrolo[2,3-b]pyridin-3-yl)pyrimidin-4(3H)-one] |
| < 10 | O=c1cc(-c2c[nH]c3ncccc23)nc(Nc2ccccc2)[nH]1 [Example 3, 2-anilino-6-(1H-pyrrolo[2,3-b]pyridin-3-yl)pyrimidin-4(3H)-one] |
| < 10 | N[C@H]1CC[C@H](Nc2nc(-c3c[nH]c4ncccc34)cc(=O)[nH]2)CC1 [Example 4, 2-[(trans-4-aminocyclohexyl)amino]-6-(1H-pyrrolo[2,3-b]pyridin-3-yl)pyrimidin-4(3H)-one] |
| < 10 | O=c1cc(-c2c[nH]c3ncccc23)nc(NCc2cc(F)cc(F)c2)[nH]1 [Example 5, 2-[(3,5-difluorobenzyl)amino]-6-(1H-pyrrolo[2,3-b]pyridin-3-yl)pyrimidin-4(3H)-one] |
| < 10 | O=c1cc(-c2c[nH]c3ncccc23)nc(NC2CCNCC2)[nH]1 [Example 6, 2-(piperidin-4-ylamino)-6-(1H-pyrrolo[2,3-b]pyridin-3-yl)pyrimidin-4(3H)-one] |
| < 10 | O=c1cc(-c2c[nH]c3ncccc23)nc(N2CCC(O)CC2)[nH]1 [Example 7, 2-(4-hydroxypiperidin-1-yl)-6-(1H-pyrrolo[2,3-b]pyridin-3-yl)pyrimidin-4(3H)-one] |
| < 10 | C[C@H](Nc1nc(-c2c[nH]c3ncccc23)cc(=O)[nH]1)c1ccccc1 [Example 8, 2-{[(1S)-1-phenylethyl]amino}-6-(1H-pyrrolo[2,3-b]pyridin-3-yl)pyrimidin-4(3H)-one] |
| < 10 | O=c1cc(-c2c[nH]c3ncccc23)nc(NC2CCOCC2)[nH]1 [Example 9, 6-(1H-pyrrolo[2,3-b]pyridin-3-yl)-2-(tetrahydro-2H-pyran-4-ylamino)pyrimidin-4(3H)-one] |
| < 10 | O=c1cc(-c2c[nH]c3ncccc23)nc(NCC2CCCO2)[nH]1 (centres unmarked) [Example 10, 6-(1H-pyrrolo[2,3-b]pyridin-3-yl)-2-[(tetrahydrofuran-2-ylmethyl)amino]pyrimidin-4(3H)-one] |
| < 10 | CN(c1nc(-c2c[nH]c3ncccc23)cc(=O)[nH]1)C1CCCCC1 [Example 11, 2-[cyclohexyl(methyl)amino]-6-(1H-pyrrolo[2,3-b]pyridin-3-yl)pyrimidin-4(3H)-one] |
| < 10 | C[C@@H](Nc1nc(-c2c[nH]c3ncccc23)cc(=O)[nH]1)c1ccccc1 [Example 12, 2-{[(1R)-1-phenylethyl]amino}-6-(1H-pyrrolo[2,3-b]pyridin-3-yl)pyrimidin-4(3H)-one] |
| < 10 | NC1CCCCC1Nc1nc(-c2c[nH]c3ncccc23)cc(=O)[nH]1 (centres unmarked) [Example 13, 2-[(2-aminocyclohexyl)amino]-6-(1H-pyrrolo[2,3-b]pyridin-3-yl)pyrimidin-4(3H)-one] |
| < 10 | O=c1cc(-c2c[nH]c3ncccc23)nc(NC2CCCCCC2)[nH]1 [Example 14, 2-(cycloheptylamino)-6-(1H-pyrrolo[2,3-b]pyridin-3-yl)pyrimidin-4(3H)-one] |
| < 10 | O=c1cc(-c2c[nH]c3ncccc23)nc(N2CCSCC2)[nH]1 [Example 15, 6-(1H-pyrrolo[2,3-b]pyridin-3-yl)-2-(thiomorpholin-4-yl)pyrimidin-4(3H)-one] |
| < 10 | CNCCNc1nc(-c2c[nH]c3ncccc23)cc(=O)[nH]1 [Example 16, 2-{[2-(methylamino)ethyl]amino}-6-(1H-pyrrolo[2,3-b]pyridin-3-yl)pyrimidin-4(3H)-one] |
| < 10 | COCCN(CCOC)c1nc(-c2c[nH]c3ncccc23)cc(=O)[nH]1 [Example 17, 2-[bis(2-methoxyethyl)amino]-6-(1H-pyrrolo[2,3-b]pyridin-3-yl)pyrimidin-4(3H)-one] |
| < 10 | COCCNc1nc(-c2c[nH]c3ncccc23)cc(=O)[nH]1 [Example 18, 2-[(2-methoxyethyl)amino]-6-(1H-pyrrolo[2,3-b]pyridin-3-yl)pyrimidin-4(3H)-one] |
| < 10 | O=c1cc(-c2c[nH]c3ncccc23)nc(NCCO)[nH]1 [Example 19, 2-[(2-hydroxyethyl)amino]-6-(1H-pyrrolo[2,3-b]pyridin-3-yl)pyrimidin-4(3H)-one] |
| < 10 | O=c1cc(-c2c[nH]c3ncccc23)nc(NCc2ccccc2C(F)(F)F)[nH]1 [Example 20, 6-(1H-pyrrolo[2,3-b]pyridin-3-yl)-2-{[2-(trifluoromethyl)benzyl]amino}pyrimidin-4(3H)-one] |
